Measured values as given in US11547681B2, “N-acylethanolamide derivatives and uses thereof” (ELIEM THERAPEUTICS, INC., priority 2016, dated 2023).

Assays:
[1] = Plasma stability (37° C., pH 7.4), mouse; type: in vitro ADME, CD-1 mouse; details: for half-life at 1 μM: male, CD-1, mouse, plasma; for % Remaining of Initial (n = 1), 0 min / % Remaining of Initial (n = 1), 15 min / % Remaining of Initial (n = 1), 30 min / % Remaining of Initial (n = 1), 60 min / % Remaining of Initial (n = 1), 120 min / % Remaining of Initial: mouse plasma; for % Remaining of Initial (n = 1), 0 min: pH 7.4, 0 min; for % Remaining of Initial (n = 1), 15 min: pH 7.4, 15 min; for % Remaining of Initial (n = 1), 30 min: pH 7.4, 30 min; for % Remaining of Initial (n = 1), 60 min: pH 7.4, 60 min; for % Remaining of Initial (n = 1), 120 min: pH 7.4, 120 min; for % Remaining of Initial: n = 1; for % Remaining of Initial (n = 1): Mouse plasma
Description: (§1) Studies were carried out in mixed-gender human plasma (Lot #GLP530-5), male Sprague-Dawley rat (Lot #RAT297944, RAT313140), male CD-1 mouse (Lot #MSE237700), and male Beagle dog (Lot #BGL87670, BGL82614), collected on sodium heparin. Plasma was adjusted to pH 7.4 prior to initiating the experiments. DMSO stocks were first prepared for the test articles. Aliquots of the DMSO solutions were dosed into 700 μL of plasma, which had been pre-warmed to 37° C., at a final test article concentration of 1 μM. […] Samples were stored at 4° C. until the end of the experiment. After the final time point was sampled, the plate was mixed and then centrifuged at 3,000 rpm for 10 minutes. Calibration standards were prepared in matched matrix. […] Analytical conditions are outlined in Appendix 8-1.
as §1, with “#AS1650-2),” for “#GLP530-5),”, “#RAT297944),” for “#RAT297944, RAT313140),”, “CD-I” for “CD-1”, “#BGL91384),” for “#BGL87670, BGL82614),”, “10-1.” for “8-1.”
(§2) Studies were carried out in mixed-gender human plasma (Lot #AS1650-2), male Sprague-Dawley rat (Lot #RAT297944), male CD-1 mouse (Lot #MSE237700), and male Beagle dog (Lot #BGL91384), collected on sodium heparin. Plasma was adjusted to pH 7.4 prior to initiating the experiments. DMSO stocks were first prepared for test articles. […] Samples were stored at 4° C. until the end of experiment. After the final time point was sampled, the plate was mixed and then centrifuged at 3,000 rpm for 10 minutes. Calibration standards were prepared in matched matrix. […] Analytical conditions are outlined in Appendix 13-1.
(§3) Studies were carried out in mixed-gender human plasma (Lot #AS 1650-2), male Sprague-Dawley rat (Lot #RAT320835), male CD-1 mouse (Lot #MSE260693), and 6 male Beagle dog (Lot #BGL91384), on sodium heparin. Plasma was adjusted to pH 7.4 prior to initiating the experiments. DMSO stocks were first prepared for the test articles. Aliquots of the DMSO solutions were dosed into 700 μL of plasma, which had been pre-warmed to 37° C., at a final test article concentration of 1 μM. […] Samples were stored at 4° C. until the end of the experiment. After the final time point was sampled, the plate was mixed and then centrifuged at 3,000 rpm for 10 minutes. Calibration standards were prepared in matched matrix. […] Analytical conditions are outlined in Appendix 17-1.

[2] = Plasma stability (37° C., pH 7.4), dog; type: in vitro ADME, Beagle dog; details: for % Remaining of Initial (n = 1), 0 min / % Remaining of Initial (n = 1), 15 min / % Remaining of Initial (n = 1), 30 min / % Remaining of Initial (n = 1), 60 min / % Remaining of Initial (n = 1), 120 min / % Remaining of Initial: dog plasma; for % Remaining of Initial (n = 1), 0 min: pH 7.4, 0 min; for % Remaining of Initial (n = 1), 15 min: pH 7.4, 15 min; for % Remaining of Initial (n = 1), 30 min: pH 7.4, 30 min; for % Remaining of Initial (n = 1), 60 min: pH 7.4, 60 min; for % Remaining of Initial (n = 1), 120 min: pH 7.4, 120 min; for half-life at 1 μM: male, Beagle, dog, plasma; for % Remaining of Initial: n = 1; for % Remaining of Initial (n = 1): Dog plasma
Description: as §1
as §1, with “#AS1650-2),” for “#GLP530-5),”, “#RAT297944),” for “#RAT297944, RAT313140),”, “CD-I” for “CD-1”, “#BGL91384),” for “#BGL87670, BGL82614),”, “10-1.” for “8-1.”
as §2, §3

[3] = pH 7.4, mouse plasma, test article 1 μM, 37° C., pH 7.4, read-out: Half-life
[4] = pH 7.4, dog plasma, test article 1 μM, 37° C., pH 7.4
[5] = pH 7.4, mouse plasma, read-out: Half-life

Row | half-life at 1 μM [1, 3] | % Remaining of Initial (n = 1), 0 min ([1]; test article 1 μM, 37° C.) | % Remaining of Initial (n = 1), 15 min ([1]; test article 1 μM, 37° C.) | % Remaining of Initial (n = 1), 30 min ([1]; test article 1 μM, 37° C.) | % Remaining of Initial (n = 1), 60 min ([1]; test article 1 μM, 37° C.) | % Remaining of Initial (n = 1), 120 min ([1]; test article 1 μM, 37° C.) | % Remaining of Initial (n = 1), 0 min ([2]; test article 1 μM, 37° C.) | % Remaining of Initial (n = 1), 15 min ([2]; test article 1 μM, 37° C.) | % Remaining of Initial (n = 1), 30 min ([2]; test article 1 μM, 37° C.) | % Remaining of Initial (n = 1), 60 min ([2]; test article 1 μM, 37° C.) | % Remaining of Initial (n = 1), 120 min ([2]; test article 1 μM, 37° C.) | half-life at 1 μM [2, 4] | SMILES | also measured
1 | 62 min | 100% | 72% | 71% | 56% | 21% | 100% | 95% | 71% | 54% | 24% | 61 min | CCCCCCCCCCCCCCCC(=O)NCCOC(=O)CCC [Compound I-2] | –
2 | 9.4 min | 100% | 23% | 24% | 9.1% | 4.7% | 100% | 90% | 90% | 95% | 99% | > 120 min | CCCCCCCCCCCCCCCC(=O)NCCOC(=O)CCC(=O)OCC(COC(=O)CCCCCCC)OC(=O)CCCCCCC (centres unmarked) [Compound I-3, PEA-Succinate-Glycerol-Di-Caprylic] | –
3 | > 120 min | 100% | 109% | 86% | 73% | 75% | 100% | 87% | 98% | 87% | 83% | > 120 min | CC/C=C\C/C=C\C/C=C\C/C=C\C/C=C\CCCC(=O)OCCNC(=O)CCCCCCCCCCCCCCC [Compound I-5] | half-life at 1 μM ([1]; pH 7.4, mouse plasma, calculated value beyond duration of experiment, read-out: Half-life (min), calculated half-life in parentheses): 213 min
4 | 56 min | 100% | 83% | 89% | 39% | 23% | 100% | 55% | 42% | 34% | 22% | 36 min | CCCCC/C=C\C/C=C\CCCCCCCC(=O)OCCNC(=O)CCCCCCCCCCCCCCC [Compound I-6] | –
5 | < 1 min | 100% | <1.0% | <1.0% | <1.0% | <1.0% | 100% | <1.0% | <1.0% | <1.0% | <1.0% | < 1 min | CCCCCCCCCCCCCCCC(=O)NCCOC(=O)CCC(=O)OC[C@H]1O[C@@](CO)(O[C@H]2O[C@H](CO)[C@@H](O)[C@H](O)[C@H]2O)[C@@H](O)[C@@H]1O [Compound I-7] | –
6 | – | – | – | – | – | – | – | – | – | – | – | – | CCCCCCCCCCCCCCCC(=O)NCCOC(=O)CCC(=O)OC(CO)CO [Compound I-8] | half-life at 1 μM [1, 5]: < 1 min; % Remaining of Initial ([1]; 0 min, 1 μM): 100%; % Remaining of Initial ([1]; 15 min, 1 μM): <1.0%; % Remaining of Initial ([1]; 30 min, 1 μM): <1.0%; % Remaining of Initial ([1]; 60 min, 1 μM): <1.0%; % Remaining of Initial ([1]; 120 min, 1 μM): <1.0%; % Remaining of Initial ([2]; 0 min, 1 μM): 100%; % Remaining of Initial ([2]; 15 min, 1 μM): <1.0%; % Remaining of Initial ([2]; 30 min, 1 μM): <1.0%; % Remaining of Initial ([2]; 60 min, 1 μM): <1.0%; % Remaining of Initial ([2]; 120 min, 1 μM): <1.0%; half-life at 1 μM ([2]; pH 7.4, dog plasma): < 1 min
7 | 13 min | 100% | 49% | 17% | 2.3% | <1.0% | 100% | 8.7% | 12% | 1.2% | <1.0% | 4.7 min | CCCCCCCCCCCCCCCC(=O)NCCOC(=O)CCC(=O)OCC(O)CO (centres unmarked) [Compound I-9] | –
8 | 3 min | 100% | 2.9% | 2.1% | 1.9% | <1.0% | 100% | 61% | 40% | 18% | 5.4% | 23 min | CCCCCCCCCCCCCCCC(=O)NCCOC(=O)CCC(=O)OCC(COC(=O)CCC)OC(=O)CCC (centres unmarked) [Compound I-11] | –
9 | – | – | – | – | – | – | – | – | – | – | – | – | CCCCC/C=C\C/C=C\CCCCCCCC(=O)OCC(COC(=O)CCC(=O)OCCNC(=O)CCCCCCCCCCCCCCC)OC(=O)CCCCCCC/C=C\C/C=C\CCCCC (centres unmarked) [Compound I-13] | % Remaining of Initial (n = 1) ([1]; 0 min, 1 μM): 100%; % Remaining of Initial (n = 1) ([1]; 15 min, 1 μM): 82%; % Remaining of Initial (n = 1) ([1]; 30 min, 1 μM): 71%; % Remaining of Initial (n = 1) ([1]; 60 min, 1 μM): 49%; % Remaining of Initial (n = 1) ([1]; 120 min, 1 μM): 35%; half-life at 1 μM ([1]; pH 7.4, Mouse plasma, 1 μM, read-out: Half-life): 70 min; % Remaining of Initial (n = 1) ([2]; 0 min, 1 μM): 100%; % Remaining of Initial (n = 1) ([2]; 15 min, 1 μM): 90%; % Remaining of Initial (n = 1) ([2]; 30 min, 1 μM): 72%; % Remaining of Initial (n = 1) ([2]; 60 min, 1 μM): 54%; % Remaining of Initial (n = 1) ([2]; 120 min, 1 μM): 23%; half-life at 1 μM ([2]; pH 7.4, Dog plasma, 1 μM): 61 min
10 | – | – | – | – | – | – | – | – | – | – | – | – | CCCCCCCCCCCCCCCC(=O)NCCOC(=O)CCC(=O)OC(COC(=O)CCC)COC(=O)CCC [Compound I-16] | half-life at 1 μM [1, 5]: < 15 min; half-life at 1 μM ([1]; pH 7.4, mouse plasma, read-out: Half-life, calculated value in parentheses): 4.7 min; % Remaining of Initial ([1]; 0 min, 1 μM): 100%; % Remaining of Initial ([1]; 15 min, 1 μM): 10%; % Remaining of Initial ([1]; 30 min, 1 μM): 4.0%; % Remaining of Initial ([1]; 60 min, 1 μM): 1.1%; % Remaining of Initial ([1]; 120 min, 1 μM): <1.0%; % Remaining of Initial ([2]; 0 min, 1 μM): 100%; % Remaining of Initial ([2]; 15 min, 1 μM): 91%; % Remaining of Initial ([2]; 30 min, 1 μM): 65%; % Remaining of Initial ([2]; 60 min, 1 μM): 39%; % Remaining of Initial ([2]; 120 min, 1 μM): 13%; half-life at 1 μM ([2]; pH 7.4, dog plasma): 44 min
